In brackets after ≈: the same amount, converted by molar mass. Where two headings read alike, the source gives them in different places.
Experiments:
PfKMO [1] = target: T1, PfKMO (Pseudomonas fluorescens, UniProt Q84HF5, C252S/C461S); assay: Stopped-flow reduction of flavin cofactor by NADPH; assay type: biochemical; conditions: for Reduction rate of flavin cofactor: PfKMO with saturating ligand, 2 mM NADPH, 25 °C, anaerobic; for Stimulation of KMO reduction by NADPH: rapid mixing stopped-flow assays
T1 construct: made in house; host or cells: E. coli BL21 (DE3)
Protocol: The reduction rate of the flavin cofactor by NADPH was measured using a stopped-flow spectrophotometer (Applied Photophysics Ltd), which was housed in an anaerobic glovebox (Belle Technology). […] The reduction of the flavin was monitored by the decrease in the absorbance of the flavin at 450 nm and transients were fitted to either double or triple exponentials.
Supplementary Figure 13. Reduction of flavin cofactor by NADPH in the presence and absence of ligands. Anaerobic mixtures of 10 µM PfKMO with or without ligand were mixed against anaerobic 2 mM NADPH on a stopped-flow spectrophotometer at 25℃. a, 10 µM PfKMO mixed with 2 mM NADPH; b, 10 µM

Homo sapiens KMO (HsKMO) = target: T2, Homo sapiens KMO (HsKMO) (Homo sapiens, UniProt O15229); assay: KMO inhibition assay, NADPH oxidation at 340 nm (HsKMO); assay type: biochemical
T2 construct: GST; made in house
From the text: (§1) A combination of ligand- and structural-based virtual screening approaches (see supporting information for details) was used to identify an initial library of >1000 compounds that may be suitable as potential KMO inhibitors. These compounds were screened for inhibition of Pseudomonas fluorescens KMO (PfKMO) and Homo sapiens KMO (HsKMO) using high-throughput assays by monitoring the time-dependent oxidation of NADPH at 340 nm[23].
(§2) Small-molecule compounds were supplied by Biofocus (Charles River Laboratories International Inc., MA, USA), which were identified in silico as potential inhibitors (further details are described in the Supplementary Methods). Initial inhibition assays were performed against Pseudomonas fluorescens KMO (PfKMO) and Homo sapiens KMO (HsKMO) by monitoring the time-dependent absorbance change of NADPH at 340 nm. Purified KMO protein (200 nM) was incubated in 100 µL reaction buffer (20 mM potassium phosphate pH 8.0, 7 mM 2-mercaptoethanol) containing 100 μM NADPH, 100 μM L-Kyn and 20 μM potential inhibitors in 96-well plates. […] The inhibitors identified in the initial screens were validated and re-assayed individually in a 1 cm path-length quartz micro cuvette. […] Suppliers for target inhibitor compounds are listed in Supplementary Table 11.
Supplementary Figure 1. Examples of inhibition data used to generate IC50 values for selected KMO inhibitors.
(§3) NADPH (100µM) were added into reaction buffer (HsKMO: 20mM potassium phosphate pH 8.0, 7 mM 2-mercaptoethanol; PfKMO: 20 mM HEPES, 10mM sodium acetate, pH 7.5, 2mM DTT). The reaction was initiated by the addition of KMO enzyme (HsKMO: 0.5µM; PfKMO: 0.1 µM). KMO activity was measured in the presence of a range of inhibitor concentrations. […]
(§4) 3.5 Steady-state enzymatic assays.
(§5) Initial screening assays and determination of IC50 values for each potential inhibitor compound were carried out using either 0.1 µM PfKMO or 0.5 µM HsKMO at fixed […]
(§6) (HsKMO: 20 mM potassium phosphate pH 8.0, 7 mM 2-mercaptoethanol; PfKMO:
(§7) 20 mM HEPES, 10 mM sodium acetate, pH 7.5, 2 mM DTT). KMO activity was measured in the presence of a range of inhibitor concentrations by monitoring the […]
(§8) consumption of NADPH at 340 nm upon addition of enzyme via a Cary 50 UV-Vis spectrophotometer (Agilent Technologies). Rates were determined from linear regression fits to the initial linear portion of the curves. All measurements were performed in triplicate. The IC50 values for inhibitors were obtained by plotting the percentage inhibition versus the inhibitor concentration and fitting to the Morrison equation16 (equation 1) using Origin 9.0 Software (OriginLab, Northampton, MA).
E + I + K!"" − E + I + K!"" ! − 4[E][I] where v0 is the enzyme activity without inhibitor, vi is the enzyme activity with ligand

[2] = target: T3, Pseudomonas fluorescens KMO (PfKMO) (Pseudomonas fluorescens, UniProt Q84HF5, C252S/C461S); assay: biochemical
T3 construct: made in house; host or cells: E. coli BL21 (DE3)
From the text: as §1, §2
as §3, with “Supplementary Figure 1. Examples of inhibition data used to generate IC50 values for selected KMO inhibitors. Fixed concentration of L -KYN (200 µM) and NADPH” for “NADPH”
as §4, §5, §6, §7
as §8, with “MA). […]” for “MA).”

PfKMO [3] = target: T1, PfKMO; assay: biochemical; conditions: for Mechanism of inhibition with respect to L-KYN / Mechanism of inhibition with respect to NADPH: PfKMO; for Km: substrates of PfKMO
Protocol: saturating concentrations of the L-KYN and NADPH substrates. Data are plotted […]
as §8
E + I + K!"" − E + I + K!"" ! − 4[E][I] where v0 is the enzyme activity without inhibitor, vi is the enzyme activity with ligand concentration [I], [E] is the enzyme concentration, [I] is the inhibitor concentration, K!"" is the apparent inhibition constant and IC = K!"" + [!] . If K!"" ≫ [!], IC ≈ […]
where Ki is the inhibition constant, [S] is the substrate concentration used in the assay and Km is the Michaelis-Menten constant17. […]
between Ki and Ki apparent values, as the conditions for measuring IC50 are different, Ki values can be used to compare with other reported KMO inhibitors.
Steady-state kinetic parameters for PfKMO were calculated by measuring initial rates […]
the observed rate of turnover (v) versus the varied substrate concentration were fitted to equation 2 using Origin 9.0 Software (OriginLab, Northampton, MA).
A B + K!! B + K!! A + K!!K!! where v is the initial rate of activity, Vmax is the maximum velocitie of the reaction, [A] and [B] are the substrate concentration, K!! and K!! are the Michaelis-Menten constant for different substrate and K!! is the inhibition (binding) constant of substrate A to the free enzyme while forming transitory complexes.18
Product inhibition studies were carried out by measuring reaction rates at varying […]
one substrate and varying concentrations of the other substrate. Inhibition studies with target compounds were carried out by measuring reaction rates at varying inhibitor concentrations at saturating concentrations of one substrate and varying concentrations of the other substrate. […]
were used to distinguish between different types of inhibition. The data were fitted to a straight line defined by the Lineweaver-Burke equation (equation 4), with the y intercept providing 1/Vmax and the x intercept giving -1/Km. […]

[4] = Stability in mouse hepatic microsomes; conditions: for half-life at 1 µM: mouse, microsomes
Protocol: 3.6.3 Compound stability in mouse hepatic microsomes and rat hepatocytes
A microsomal stability assay was performed as described in the BioFocus Standard
Operating Procedure ADME-SOP-83, using pooled hepatic mouse
Test and control compounds (midazolam,
dextromethorphan), were prepared in DMSO and incubated at an initial concentration
in the presence of the cofactor, NADPH (1 mM). Aliquots were removed at 0, 5, 10,
20 and 40 minutes for termination of reactions and compound extraction with ACN
containing an analytical internal standard. Samples were centrifuged and the
supernatant fractions analysed for parent compound by mass spectrometry (LC-
MS/MS). The amount of compound remaining (expressed as %) was determined from
the MS response in each sample relative to that in the T = 0 samples (normalised for
internal standard). Ln plots of the % remaining were used to determine the half-life
the slope of the Ln % remaining vs time curve. The in vitro intrinsic clearance Clint

[5] = Kinetic solubility in PBS, pH 7.4 (2% DMSO); assay type: physicochemical; conditions: PBS with 2% DMSO, pH 7.4, aqueous buffer, kinetic from dmso stock, PBS, pH 7.4 (2% DMSO)
[6] = Mouse brain penetration study; assay type: in vivo, female C57BL6 mice; conditions: mouse
Protocol: Inhibitor 1 (and prodrugs 1a, 1b, 1c and 1d) was dosed as a bolus solution intravenously at 1 mg free base/kg (dose volume: 5 mL/kg; dose vehicle: 5% DMSO; 95% saline (inhibitor 1) or 5% DMSO; 40% PEG400; 55% MilliQ H2O (prodrugs 1a, 1b, 1c and 1d)) to female C57BL6 mice (n = 6). At 5 min and 60 min following intravenous bolus injection of test compound, mice (n = 3/timepoint) were placed under terminal anaesthesia with isofluorane. A blood sample was taken by cardiac puncture, the […] decapitated and the brain removed. Brain weight was noted and each brain homogenised with two volumes of methanol (2 mL/g brain). Each blood sample was diluted with distilled water (1:10). Diluted blood and the brain homogenates were then stored frozen until preparation and analysis by UPLC-MS/MS. For each mouse at each timepoint for 1, the concentration in brain (ng/g) was divided by the concentration in blood (ng/mL) to give a brain:blood ratio. The mean value obtained was quoted. For prodrugs 1a to 1d, only the concentration of 1 in blood (ng/mL) and brain (ng/g) was reported.
A rapid and sensitive ultra-performance chromatography/tandem mass spectrometry (UPLC-MS/MS) method was developed and validated for the determination of inhibitor 1 and prodrug 1b (rat only). Chromatographic analysis was conducted on a Waters Acquity™ UPLC system. Chromatographic separation was performed with an Acquity™ UPLC BEH C18 column (50 × 2.1 mm, 1.7 µm, 130Å; Waters Corp.) maintained at 40 °C in a column oven. The mobile phase consisted of water with 0.01% formic acid and ACN with 0.01 % formic acid and it was delivered at a flow rate of 0.6 mL/min under gradient eluent conditions within an analysis cycle time of 3 min. The mass detection was conducted on a Waters Xevo™ TQs mass spectrometer equipped with a ScanWave™ technology. Quantitation of the analyte was performed in electrospray positive ionisation mode (ESI^+) using multiple reaction monitoring. The optimised fragmentation transition was m/z = 270.17 → 196.19 (mouse) or m/z = 270.17 → 223.76 (rat) for inhibitor 1 and m/z = 297.83 → 195.74 for prodrug 1b (rat).
Sample extraction for blood and brain homogenate was by protein precipitation (1:3 or 1:6) using ACN containing suitable internal standard. Extracts were vortexed followed by centrifugation (2800 rpm for 10 min). An aliquot of each supernatant was then diluted two-fold in distilled water ready for analysis by UPLC-MS/MS.
The weighted 1/x^2 calibration line was linear in the dynamic range of 1–5000 ng/mL for inhibitor 1 and 1–1000 ng/mL for prodrug 1b with a correlation coefficient (r^2) > 0.99 (inhibitor 1) or 0.98 (prodrug 1b). The quality control samples (QC) were prepared by using the same spiking scheme as the calibration samples and up to four different target concentration brain levels: 2 ng/mL (LQC), 40 ng/mL (MQC), 100 ng/mL (HQC) and 2000 ng/mL. Data collection, peak integration and calculations were performed using MassLynx software, version 2.1.

[7] = Half-life Mean, mouse hepatic microsomes
[8] = Half-life n=1, mouse hepatic microsomes
[9] = Half-life n=2, mouse hepatic microsomes
[10] = 1 mg/kg i.v., 5 min, single mice, analyte inhibitor 1 (also after prodrugs) or 1h

T2 sequence (O15229 whole entry): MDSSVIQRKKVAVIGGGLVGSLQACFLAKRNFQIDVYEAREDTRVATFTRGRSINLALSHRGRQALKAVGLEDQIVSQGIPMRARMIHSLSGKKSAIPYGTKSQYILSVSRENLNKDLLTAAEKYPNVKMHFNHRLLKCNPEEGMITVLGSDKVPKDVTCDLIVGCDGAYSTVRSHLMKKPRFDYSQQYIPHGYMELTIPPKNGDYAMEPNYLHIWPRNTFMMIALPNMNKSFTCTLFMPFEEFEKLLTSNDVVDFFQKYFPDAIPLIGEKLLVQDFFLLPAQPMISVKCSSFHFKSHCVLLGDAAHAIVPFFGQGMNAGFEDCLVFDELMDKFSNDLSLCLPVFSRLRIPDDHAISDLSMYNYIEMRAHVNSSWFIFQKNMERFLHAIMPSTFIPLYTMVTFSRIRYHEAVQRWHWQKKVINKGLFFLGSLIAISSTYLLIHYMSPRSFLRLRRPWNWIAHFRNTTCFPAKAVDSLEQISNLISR
T1 sequence (Q84HF5 whole entry C252S/C461S): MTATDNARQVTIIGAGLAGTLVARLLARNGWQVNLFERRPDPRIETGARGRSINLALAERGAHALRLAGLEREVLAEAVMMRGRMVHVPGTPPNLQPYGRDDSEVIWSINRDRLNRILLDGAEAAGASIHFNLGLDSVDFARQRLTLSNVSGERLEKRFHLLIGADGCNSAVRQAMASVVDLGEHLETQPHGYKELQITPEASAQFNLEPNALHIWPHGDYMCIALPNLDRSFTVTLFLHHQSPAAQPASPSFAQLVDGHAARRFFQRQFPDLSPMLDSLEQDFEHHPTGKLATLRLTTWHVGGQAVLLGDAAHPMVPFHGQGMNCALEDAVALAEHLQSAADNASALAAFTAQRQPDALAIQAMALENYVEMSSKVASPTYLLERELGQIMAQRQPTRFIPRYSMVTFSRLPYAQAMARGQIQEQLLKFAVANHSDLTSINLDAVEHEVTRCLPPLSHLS
T3 sequence (Q84HF5 whole entry C252S/C461S): as above

SMILES: O=C(O)c1ccc(-c2ccc(Cl)c(Cl)c2)o1 [compound 13, 5-(3,4-dichlorophenyl) furan-2-carboxylic acid]
- Reduction rate of flavin cofactor (PfKMO [1]): 0.06 ± 0.002 s⁻¹
- Stimulation of KMO reduction by NADPH (PfKMO [1]): do not stimulate
- IC50 (Homo sapiens KMO (HsKMO)): 63.1 µM
- IC50 [2]: 0.4 ± 0.02 µM
- Ki (PfKMO [3]): 20 ± 1 nM
- Mechanism of inhibition with respect to L-KYN (PfKMO [3]): competitive inhibitor
- Mechanism of inhibition with respect to NADPH (PfKMO [3]): mixed type inhibitors

SMILES: Cn1c(C(=O)N[C@@H](C(=O)O)c2ccccc2)cc2cc(Cl)ccc21 [compound 4, (R)-2-(5-chloro-1-methyl-1H-indole-2-carboxamido)-2-phenylacetic acid]
- Reduction rate of flavin cofactor (PfKMO [1]): 0.03 ± 0.005 s⁻¹
- Stimulation of KMO reduction by NADPH (PfKMO [1]): do not stimulate
- IC50 (Homo sapiens KMO (HsKMO)): 6.1 µM
- IC50 [2]: 59.8 ± 7.14 µM
- Ki (PfKMO [3]): 3000 ± 240 nM
- Mechanism of inhibition with respect to L-KYN (PfKMO [3]): competitive inhibitor
- Mechanism of inhibition with respect to NADPH (PfKMO [3]): mixed type inhibitors

SMILES: NC(=O)C1=CN([C@@H]2O[C@H](COP(=O)(O)OP(=O)(O)OC[C@H]3O[C@@H](n4cnc5c(N)ncnc54)[C@H](OP(=O)(O)O)[C@@H]3O)[C@@H](O)[C@H]2O)C=CC1 [NADPH, reference compound]
- Km (PfKMO [3]; read-out: Km): 16.9 ± 1.5 µM

SMILES: Cc1ncc2n1-c1ccc(Cl)cc1C(c1ccccc1F)=NC2 [Midazolam, reference compound]
- Mean intrinsic clearance ([4]; mouse hepatic microsomes): > 554 µL/min/mg microsome protein
- half-life at 1 µM [4, 7]: < 5 min
- half-life at 1 µM [4, 8]: < 5 min
- half-life at 1 µM [4, 9]: < 5 min

SMILES: COC(=O)[C@H]1[C@H]2C[C@@H]3c4[nH]c5cc(OC)ccc5c4CCN3C[C@H]2C[C@@H](OC(=O)c2cc(OC)c(OC)c(OC)c2)[C@@H]1OC [Reserpine, reference compound]
- solubility at 2 h ([5]; read-out: Solubility Mean): 9 µM (≈ 5.48 µg/mL)
- solubility at 2 h ([5]; read-out: Solubility n=1): 9 µM (≈ 5.48 µg/mL)
- solubility at 2 h ([5]; read-out: Solubility n=2): 9 µM (≈ 5.48 µg/mL)

SMILES: COc1ccc2c(c1)[C@]13CCCC[C@@H]1[C@H](C2)N(C)CC3 [Dextromethorphan, reference compound]
- Mean intrinsic clearance ([4]; mouse hepatic microsomes): 97 µL/min/mg microsome protein
- half-life at 1 µM [4, 7]: 29 min
- half-life at 1 µM [4, 8]: 28 min
- half-life at 1 µM [4, 9]: 29 min

SMILES: Nc1ccccc1C(=O)C[C@H](N)C(=O)O [L-KYN, reference compound]
- Reduction rate of flavin cofactor (PfKMO [1]): 339 ± 16.6 s⁻¹
- Km (PfKMO [3]): 12.1 ± 1.4 µM

SMILES: Cc1cc2c(c(C)c1Cl)N(CC(=O)OC(C)(C)C)C(=O)CO2 [1d]
- IC50 (Homo sapiens KMO (HsKMO)): > 300 µM
- IC50 [2]: ~200 µM
- In blood [6, 10]: ≤ LLoQ
- In brain [6, 10]: ≤ LLoQ
- In brain ([6]; 1 mg/kg i.v., 60 min, single mice, analyte inhibitor 1 (also after prodrugs) or 1h): ≤ LLoQ
- Release of 1 in blood and brain ([6]; prodrug 1 mg/kg i.v. bolus): undetectable

From article PMC6656724 (Communications Biology, 2019)
